Consider one compound from patent US20080131432A1, “Method of treating the chemotoxic effects of chemotherapeutic drugs on brain tissue” (University of Kentucky Research Foundation, priority 2005, published 2008).

In one data set the test system is p53 and Bcl-xL complex. As to the kind of experiment: Co-immunoprecipitation of p53 with Bcl-xL in brain mitochondria. The class given is in vivo, mouse. Particulars: after ADR, vs saline control; hydrochloride. The protocol:
Isolated mitochondrial protein (500 μg) was resuspended in 500 μL RIPA buffer (9.1 mM Na2HPO4, 1.7 mM NaH2PO4, 150 mM NaCl, 0.5% sodium deoxycholate, 1% v/v Nonidet P40, 0.1% sodium dodecyl sulfate, pH 7.2). Protease inhibitors (0.1 mg PMSF and 1 μg aprotinin per mL RIPA) were added at the time of use followed by incubation with 5 μg/mL of mouse p53 antibody (Ab-11, Oncogene) at 4° C. overnight. Protein A/G-Agarose (50 μL) was added to the reaction mixture with the antibody. Immunocomplexes were collected by centrifugation at 1,000×g at 4° C. for 5 minutes, then washed four times with RIPA buffer. Immunoprecipitated samples were recovered by resuspending in 2×sample loading buffer, and p53 or Bcl-xL (Santa Cruz Biotechnology, Santa Cruz, Calif.) proteins were detected by Western blot. Immunoreactivity was evaluated on immunoblots by densitrometric analysis using a Bio-RAD densitometer (Bio-RAD Laboratory, Inc, Hercules, Calif., USA).

The conditions of data set [1]: in vivo; cited from earlier work.
The conditions of data set [2]: seventy-two hours after a single intraperitoneal injection of ADR; cited from earlier work.
Another data set deals with cytochrome c. The experiment in a line: Cytochrome c release from mitochondria to cytosol (Western blot). The class given is in vivo, mouse. To be noted: brain tissue 3 hours after ADR. On the procedure: Western blot analyses of cytochrome c and succinate dehydrogenase or β-actin were determined in mitochondrial or cytosolic fractions isolated from brain tissues 3 hours after mice were treated with ADR, and anti-TNF antibody immediately followed by ADR, and anti-TNF antibody, IgG, or saline as controls. Cytochrome c was decreased in mitochondria (*P<0.01) but increased cytosol after treatment with ADR or IgG followed by ADR. Succinate dehydrogenase or β-actin were used to normalize for protein loading. The Western blots shown a re a representative set of data of n=3 separate sets from individual animals. Quantification of all the data
(Immunoblotting shows a protein as a band on a membrane.)

Data set [3] has as its system mitochondrial respiration complex II. As to the kind of experiment: Brain mitochondrial respiration, complex II (succinate). To be noted: succinate as substrate, after ADR. The class given is in vivo, mouse.
Method: Mice were perfused via cardiac puncture with cold mitochondrial isolation buffer, the brain promptly removed, the cerebellum dissected away, and mitochondria immediately isolated from the freshly brain by a modification of the method described by Mattiazzi et al. (2002). Brain mitochondria were isolated in cold mitochondrial isolation buffer, containing 0.07 M sucrose, 0.22 M mannitol, 20 mM HEPES, 1 mM EGTA, and 1% bovine serum albumin, pH 7.2. Tissues were homogenized with a Dounce homogenizer and centrifuged at 1,500×g at 4° C. for 5 minutes before transferring the supernatant. The pellets were resuspended and centrifuged at 1,500×g at 4° C. for 5 minutes. […] Protein concentration of isolated mitochondria was determined by the Bradford assay (Bradford, 1976). […]
Mitochondrial respiration was determined using Clark-type polarographic oxygen sensors (Hansatech Instruments, Kings Lynn, Norfolk, UK) to measure the rate of oxygen consumption. […] Oxygen consumption was measured with either pyruvate (10 mM) plus malate (10 mM) or succinate (10 mM) as substrates for respiration from complex I or complex II in the absence of exogenous ADP (state II) and after addition of 300 mM ADP (state III respiration). […] Respiration control ratios (RCR) were calculated as the ratios of state III and state II respiration as described previously by Estabrook (1967). […]
A further data set deals with MnSOD, CuZnSOD. As to the kind of experiment: MnSOD and CuZnSOD protein levels in brain homogenates (western blot). The class given is in vivo, mouse. To be noted: wild-type and iNOSKO mice, 3 hours after ADR 20 mg/kg.
Another data set has as its system TNF α. The experiment in a line: TNF α levels in brain tissue homogenates (Western blot). The class given is in vivo, mouse. Particulars: 3 hours after single dose, vs saline control. On the procedure:
Brains perfused with PBS were isolated and dissected from four groups of mice 3 hours post injection of a single dose of ADR, anti-TNF α antibody, anti-TNF α antibody immediately followed by ADR, or saline treated mice. Brain was isolated and placed in 0.1 M PBS, pH 7.4 containing protease inhibitors, 4 μg leupeptin, 4 μg pepstatin, and 5 μg aprotinin, washed and minced in ice-cold PBS containing protease inhibitors. […] Protein concentration of brain homogenate was determined by the Bradford assay (Bradford, 1976).
Perfused brain homogenates and isolated mitochondrial proteins were size-separated via 12.5% denaturing polyacrylamide gel electrophoresis (SDS-PAGE) and transferred to a nitrocellulose membrane. The membrane was blocked for 1 hour at room temperature in blocking solution consisting of 5% non-fat dried milk, 0.5% Tween-20 and Tris-buffered saline (TBST), pH 7.9. […] Immunoreactivities of the protein bands were detected by enhanced chemiluminescence autoradiography (ECL, Amersham Phamacia Biotech, Arlington Heights, Ill.) as described by the manufacturer.

In another data set the test system is caspase 3. The experiment in a line: Caspase 3 activity in brain tissues. The class given is in vivo, mouse. Particulars: 3 and 72 hours after 20 mg/kg ADR; hydrochloride.
Data set [4] concerns cortical and hippocampal cells. As to the kind of experiment: TUNEL-positive apoptotic cell death in cortical and hippocampal regions. The class given is in vivo, mouse. To be noted: 3 and 72 hours after ADR, vs saline. On the procedure: (A) Brain cryosection tissues were treated with biotinylated rTdT, followed by streptavidin peroxidase and diaminobenzidine-hydrogen peroxide, and counterstained with methyl-green. […] (For interpretation of the references to colour in this figure legend, the reader is referred to the web version of this article.)

Data set [5] relates to p53, Bax, Bcl-xS, Bcl-xL, MnSOD in mitochondria. The experiment in a line: Immunoblots of pro- and anti-apoptotic proteins in brain mitochondria. The class given is in vivo, mouse. The protocol:
Perfused brain homogenates and isolated mitochondrial proteins were size-separated via 12.5% denaturing polyacrylamide gel electrophoresis (SDS-PAGE) and transferred to a nitrocellulose membrane. The membrane was blocked for 1 hour at room temperature in blocking solution consisting of 5% non-fat dried milk, 0.5% Tween-20 and Tris-buffered saline (TBST), pH 7.9. After blocking, the membrane was incubated overnight at 4° C. with primary antibodies against TNF α (Upstate, Lake Placid, N.Y.) and β-actin (Sigma, St. Louis, […].) in homogenate samples, or isolated mitochondria samples for p53 (Ab-11, Oncogene Research, Cambridge, Mass.), Bcl-xS/L (S-18), Bax (P-19) (Santa Cruz Biotechnology, Santa Cruz, Calif.), MnSOD (Upstate, Lake Placid, N.Y.), and glyceraldehyde-3-phosphate dehydrogenase (G-3-PDH, Trevigen, Gaithersburg, Md.) in blocking solution. The membrane was washed twice in TBST and incubated for 1 hour with horseradish peroxidase-conjugated secondary antibodies in blocking solution. After incubation with secondary antibodies, the membrane was washed twice with TBST and once in TBS (TBS without 0.5% Tween-20). Immunoreactivities of the protein bands were detected by enhanced chemiluminescence autoradiography (ECL, Amersham Phamacia Biotech, Arlington Heights, Ill.) as described by the manufacturer.
The final protein concentration was 20-40 mg/ml.

Data set [6] can be described thus: Localization of ADR in brain tissue (inverted fluorescence microscope). The class given is in vivo. Particulars: mouse brain 3 hours after 20 mg/kg ADR i.p.; hydrochloride. On the procedure: Eight-week-old male B6C3 mice (25-30 g) were kept under standard conditions. The mice were injected in a single intraperitoneal (i.p.) dose of 20 mg/kg adriamycin (Doxorubicin hydrochloride, […] Sicor Phamaceuticals, Inc., Irvine, Calif.), or the same volume of saline as control for 3 hours. […] Controls consisted of anti-TNF α antibody alone, or saline in the same total volume. All results were obtained from at least three separate experiments. Mice were euthanized by the i.p. injection of 65 mg/kg of nembutal (Sodium pentobarbital, Abbott Laboratories, North Chicago, Ill.), and were perfused via cardiac puncture initially with 0.1 M phosphate buffered saline (PBS), pH 7.4, and subsequent fixation with 4% paraformaldehyde. […] The sections were prepared for immunohistochemistry and detection of ADR. ADR in brain tissue slices was directly visualized using an inverted fluorescence microscope, FIG. 1 (excitation filter 550 nm, and barrier filter 590 nm). Photomicrographs were taken with an Olympus MagnaFire digital camera (Olympus, America, Melville, N.Y.).

Setting [7] is: after ADR 20 mg/kg, 3-72 hours, vs saline, hydrochloride.
Where [8] appears, read: after ADR, any time point studied.

Each structure is given as a SMILES string. Entries after “also recorded” stand apart in the source; their conditions may differ. Where a name gives a salt, the structure may show the parent alone.

Method for MnSOD, CuZnSOD: Brains were perfused, the cerebellum removed and the brain dissected from mice treated with i.p. ADR 20 mg/kg, or saline as a control, for 3 hours. Brains were placed in ice-cold 50 mM PBS, pH 7.4, containing the protease inhibitors 4 μg leupeptin, 4 μg pepstatin, and 5 μg aprotinin, washed and chopped in ice-cold PBS containing protease inhibitors. Tissues were homogenized with a Potter-Elvehjem glass homogenizer with a loose fitting Teflon® pestle, and protein concentration was determined by the Bradford assay (Bradford, 1976). Brain homogenate proteins were size-separated using denaturing sodium dodecyl sulfate-polyacrylamide gel electrophoresis (SDS-PAGE). Proteins (50 μg) were electrophoresed on 12.5% SDS-PAGE and transferred to a nitrocellulose membrane. The membrane was blocked for 1 hour at room temperature in blocking solution consisting of 5% non-fat dried milk, Tris-buffered saline (TBST; 10 mM Tris-HC, 150 mM NaCl, 0.05% Tween 20), pH 7.9. After blocking, the membrane was incubated overnight at 4° C. with primary antibodies against MnSOD (Upstate, Lake Placid, N.Y., USA), Cu/ZnSOD (Calbiochem, San Diego, Calif., USA) and β-actin (Sigma) in blocking solution. […] Immunoreactivities of the protein bands were detected by enhanced chemiluminescence autoradiography (ECL; Amersham Phamacia Biotech, Arlington Heights, Ill., USA) as described by the manufacturer.

On to `COc1cccc2c1C(=O)c1c(O)c3c(c(O)c1C2=O)C[C@@](O)(C(=O)CO)C[C@@H]3O[C@H]1C[C@H](N)[C@H](O)[C@H](C)O1` [ADR, Doxorubicin hydrochloride], for which, in the data set on p53 and Bcl-xL complex, the “p53 and Bcl-xL complex in brain mitochondria (Bcl-xL bands after anti-p53 immunoprecipitation)” value is “specific increases of p53 and Bcl-xL; also recorded: increased at 3 hours”. The “Crossing of the blood brain barrier” value in [1] was “does not cross the blood brain barrier”. The “Levels of protein oxidation and lipid peroxidation in brain tissues” value in [2] is given as “significant increase”. Further, in the data set on cytochrome c, the “Cytochrome c in cytosolic fraction” value is “increased” and the “Cytochrome c in mitochondrial fraction” value was “decreased”. The “Brain mitochondrial respiration complex II” value in [3] is “no effect”. In addition, in the data set on MnSOD, CuZnSOD, the “CuZnSOD protein level in brain homogenates” value is given as “no change” and the “MnSOD protein level in brain homogenates” value was “no change”. In addition, the “TNF α levels in brain tissue homogenates” value in the data set with TNF α was “significantly increased”. Besides, the “Caspase 3 activity in brain tissues” value in the data set on caspase 3 is “significantly increased; also recorded: increased at 72 hours compared with 3 hours”. Also, in [4], the “TUNEL-positive apoptotic cells in cortex and hippocampus” value was “increased number of apoptotic cells”. Further, in [5] (setting [7]), the “Bax level in brain mitochondria” value was “increased with a similar kinetics to that of p53; also recorded: increased at 3 and 6 hours; also recorded: increase in protein density”; the “p53 level in brain mitochondria” value is “increased in mitochondria early times after ADR treatment (3, 6, 24 hours), then declined at 48, and 72 hours; also recorded: significantly increased at 3, 6, and 24 hours; also recorded: increase in protein density”. In addition, in [5] (setting [8]), the “Bcl-xS level in brain mitochondria” value is given as “no significant changes” and the “MnSOD level in brain mitochondria” value was “no significant changes”. Moreover, in data set [6], the “ADR orange-red fluorescence in areas outside the blood brain barrier (choroid plexus)” value is reported as “observed in several areas outside the blood brain barrier, including the choroid plexus; also recorded: apparent in the choroid plexus”; the “ADR orange-red fluorescence in cortex and hippocampus” value was “not observed in cortex and hippocampus; also recorded: not detected”.
